In brackets after ≈: the same amount, converted by molar mass. Entries after “also recorded” stand apart in the source; their conditions may differ. Values belong to the compound of their own block, whether it stands above or below them.
Experiments:
Format in all cases: physicochemical
[1] = Physical stability upon exposure to accelerated aging conditions (AAC, 40° C./75% RH), re-analysis by HT-XRPD; conditions: for Physical stability upon exposure to AAC: HT-XRPD before and after; for Solid forms Vacuum AAC: vacuum-dried solids after AAC (40° C./75% RH, 2 days)
[2] = Physical stability of solid forms upon drying under vacuum, HT-XRPD; conditions: for Physical stability upon drying under deep/high vacuum: oxalate, phosphate, malonate forms, 5 mbar, 18 h; for Solid forms Vacuum: form after drying under deep vacuum (5 mbar, 18 h), HT-XRPD
Procedure: (§1) Amorphous voruciclib oxalate salt, generated by freeze-drying, was used to start the thermocycling experiments. Suspensions were prepared in the selected solvent systems at RT. Subsequently, the mixtures were subjected to a temperature profile. After the temperature profile, the solids were separated from the solutions by centrifugation and were dried at ambient conditions and under deep vacuum before being harvested and analyzed by HT-XRPD. The liquid phases were also dried under deep vacuum before being harvested and analyzed by HT-XRPD. All solids were exposed to AAC (40° C./75% RH, 2 days).
(§2) After the temperature profile, the solids were separated from the liquids by centrifugation and the solid phase was dried at ambient conditions and under deep vacuum (5 mbar) before being harvested and analyzed by HT-XRPD. The liquid phases were dried under deep vacuum (5 mbar) and the recovered solids were analyzed by HT-XRPD. All solids were then exposed to accelerated aging conditions (40° C./75% RH, 2 days) followed by HT-XRPD re-analysis.
as §1, with “voruciclib phosphate” for “voruciclib oxalate”, “profile. Upon completion of” for “profile. After”, “dried under” for “dried at”
as §2, with “dried under” for “dried at”, “(5 mbar, 18 h)” for “(5 mbar)”
Amorphous voruciclib malonate salt, generated by freeze-drying, was used to start the thermocycling experiments. Suspensions were prepared in the selected solvent systems at RT and were subjected to three thermocycles between 50 and 5° C., followed by aging at 25° C. for 3 days. Upon completion of the aging time, the solids were separated from the liquids by centrifugation and they were dried at ambient conditions and under deep vacuum (5 mbar) before being harvested and analyzed by HT-XRPD.
After the temperature profile the solids were separated from the solution by centrifugation and they were dried at ambient conditions and under deep vacuum before being harvested and analyzed by HT-XRPD.

[3] = Solubility of salts in water and in 0.2 M phosphate buffer pH 6 at 37° C. after 4 hours (HPLC-DAD); conditions: for pH (4 h): pH at end of equilibration
Procedure: Two sets of solubility experiments were performed. […] In the second set of solubility experiments about 5 mg of the salt was weighed in a standard 1.8 mL HPLC vial. Subsequently, aliquots of 200 μL of aqueous medium were added up to a maximum of 1 mL, while making observations regarding the dissolution behavior of the salts. The vials were left to equilibrate at 37° C. with continuous stirring (see Table 25 for details). After 4 hours the solids were separated from the liquid by centrifugation and the liquid phase was further filtrated through a […] PTFE filter to remove any particulate matter. The concentration of solute was determined by HPLC-DAD analysis. A calibration curve was made from two independent stock solutions of voruciclib prepared in acetonitrile/water. The pH was recorded at the end of the equilibration time.

[4] = Approximate solubility assessment of the free base by the solvent (aliquot) addition method; conditions: for Solubility in words / solubility: RT; for solubility: thermodynamic from solid
Procedure: The approximate solubility of the free base was assessed in several organic solvents (Table 17) by the solvent addition method. To about 5 mg of free base, aliquots of solvent were added until complete dissolution was observed or until a concentration […] was reached. Aliquots of 100 μL were used up to 2 mL, followed by aliquots of 1 mL up to 8 mL. […] Based on the solubility results, in some embodiments the crystallization solvents selected for salt formation were THF, ethanol and acetone.
The solubility assessment was performed according to the aliquot addition method and visually assessed. About 5 mg of free base was weighed into 8 mL glass vials. Aliquots of 100 μL were added up to 2 mL, followed by aliquots of 1 mL up to 8 mL. The experimental conditions are described in Table 21.

[5] = Thermal stability of the free base in solution (HPLC); conditions: for Area (HPLC): 1 h
[6] = oxalate salt thermocycling, HT-XRPD
[7] = 0.2M phosphate buffer pH 6, 37° C., about 1 mg salt in 1 mL
[8] = 0.2M phosphate buffer pH 6, 37° C., about 5 mg salt in 1 mL
[9] = water, 37° C., about 1 mg salt in 1 mL
[10] = water, 37° C., about 5 mg salt, up to 1 mL

Stability AAC ([1]; oxalate salt cooling crystallization solids, AAC (40° C./75% RH, 1 day)): Stable | Solid forms Vacuum AAC [1, 6]: Oxa1 | Solid phase AAC (XRPD form after accelerated aging) ([1]; precipitated solids of the salt screen, dried under vacuum at 50° C., 40° C./75% RH for 2 days, HT-XRPD): Oxa1 | Stable during AAC ([1]; salt screen solids, 40° C./75% RH, 2 days): Yes | Vacuum ([2]; oxalate salt cooling crystallization, form after drying under deep vacuum (5 mbar), label = ambient-dried form): Oxa1 | Physical stability upon drying under deep/high vacuum [2]: physically stable | Solubility in phosphate buffer ([3]; 0.2 M phosphate buffer pH 6, 37° C., 4 hours): 30 µg/mL | solubility ([3]; 0.2M phosphate buffer pH 6, 37° C., 4 hours, about 1 mg salt in 1 mL): 20 µg/mL | solubility ([3]; 0.2M phosphate buffer pH 6, 37° C., 4 hours, about 5 mg salt in 1 mL): 30 µg/mL | Solids recovered / salt dissociation after solubility determination in buffer ([3]; 0.2 M phosphate buffer pH 6, 37° C., 4 hours, XRPD): The salt had dissociated in the buffer | Form (4 h) of residual solid [3, 7]: Am | pH (4 h) [3, 7]: 6.0 | Form (4 h) of residual solid [3, 8]: Free | pH (4 h) [3, 8]: 5.8 | solubility ([3]; water, 37° C., 4 hours, about 1 mg salt in 1 mL): hazy | solubility ([3]; water, 37° C., 4 hours, about 5 mg salt, up to 1 mL): hazy | Form (4 h) of residual solid [3, 9]: Free | pH (4 h) [3, 9]: 4.4 | Form (4 h) of residual solid [3, 10]: Oxa1 | pH (4 h) [3, 10]: 4.3
Compound: CN1CC[C@@H](c2c(O)cc(O)c3c(=O)cc(-c4ccc(C(F)(F)F)cc4Cl)oc23)[C@@H]1CO.CN1CC[C@@H](c2c(O)cc(O)c3c(=O)cc(-c4ccc(C(F)(F)F)cc4Cl)oc23)[C@@H]1CO.O.O=C(O)C(=O)O [Oxa1]
Physical stability upon exposure to AAC ([1]; 40° C./75% RH, 2 days): stable when exposed to advanced aging conditions; also recorded: physically stable under short term stress conditions; also recorded: physically stable upon exposure to AAC for two days; also recorded: remained stable upon exposure to AAC | Solids recovered after solubility determination in water ([3]; water, 37° C., 4 hours, XRPD): The residual solids of the suspension were identical to Oxa1

Solid forms Ambient AAC ([1]; oxalate salt thermocycling, ambient-dried solids after AAC (40° C./75% RH, 2 days), HT-XRPD): Oxa2 + peaks | Solid forms Vacuum AAC [1, 6]: Oxa2 + peaks | Solid forms Vacuum ([2]; oxalate salt thermocycling solids, label = ambient-dried form): Oxa2 + peaks
Compound: CN1CCC(c2c(O)cc(O)c3c(=O)cc(-c4ccc(C(F)(F)F)cc4Cl)oc23)C1CO.O=C(O)C(=O)O (stereo not drawn) [Oxa2 + peaks]

Physical stability upon drying under deep/high vacuum [2]: remained physically stable | Solid forms Vacuum ([2]; phosphate salt thermocycling solids, label = ambient-dried form): Pho7
Compound: CN1CCC(c2c(O)cc(O)c3c(=O)cc(-c4ccc(C(F)(F)F)cc4Cl)oc23)C1CO.O=P(O)(O)O (stereo not drawn) [Pho7]
Physical stability upon exposure to AAC ([1]; 40° C./75% RH, 2 days): additional diffraction peaks were observed; also recorded: unstable upon exposure to AAC

Solubility at RT ([4]; 1,4-Dioxane): ~1000 µg/mL (≈ 2.13 mM) | Solubility at RT ([4]; 2-Propanol): ~8000 µg/mL (≈ 17 mM) | Solubility at RT ([4]; Acetonitrile): ~5000 µg/mL (≈ 10.6 mM) | Solubility at RT ([4]; Chloroform): ~5000 µg/mL (≈ 10.6 mM) | Solubility at RT ([4]; Ethyl acetate): ~1000 µg/mL (≈ 2.13 mM) | Solubility in words ([4]; THF): soluble | Solubility at RT ([4]; Water): <1000 µg/mL | Solubility in words ([4]; methanol, ethanol and acetone): sparingly soluble | solubility ([4]; organic solvent or mixture, 1,4-Dioxane, approximate, solvent addition, read-out: Solubility): ~1000 µg/mL (≈ 2.13 mM) | solubility ([4]; organic solvent or mixture, 2-Propanol, approximate, solvent addition, read-out: Solubility): ~8000 µg/mL (≈ 17 mM) | solubility ([4]; organic solvent or mixture, Acetone, approximate, solvent addition, read-out: Solubility): 10000 to 13000 µg/mL (≈ 21.3 to 27.7 mM) | solubility ([4]; organic solvent or mixture, Acetonitrile, approximate, solvent addition, read-out: Solubility): ~5000 µg/mL (≈ 10.6 mM) | solubility ([4]; organic solvent or mixture, Chloroform, approximate, solvent addition, read-out: Solubility): ~5000 µg/mL (≈ 10.6 mM) | solubility ([4]; organic solvent or mixture, Ethanol, approximate, solvent addition, read-out: Solubility): 14000 to 18000 µg/mL (≈ 29.8 to 38.3 mM) | solubility ([4]; organic solvent or mixture, Ethyl acetate, approximate, solvent addition, read-out: Solubility): ~1000 µg/mL (≈ 2.13 mM) | solubility ([4]; organic solvent or mixture, Methanol, approximate, solvent addition, read-out: Solubility): 17000 to 26000 µg/mL (≈ 36.2 to 55.3 mM) | solubility ([4]; organic solvent or mixture, Tetrahydrofuran, approximate, solvent addition, read-out: Solubility): 30000 to 60000 µg/mL (≈ 63.9 to 128 mM) | solubility ([4]; organic solvent or mixture, solvents other than THF, methanol, ethanol, acetone, read-out: Solubility in other solvents): < 10000 µg/mL | solubility ([4]; Water, approximate, solvent addition, read-out: Solubility): < 1000 µg/mL | Solubility in words ([4]; water): practically insoluble | Area (HPLC) ([5]; Acetone solution, 25° C.): 1562.10 mAu*s | Area (HPLC) ([5]; Acetone solution, 50° C.): 1566.22 mAu*s | Area (HPLC) ([5]; Acetone solution, 80° C.): 1566.56 mAu*s | Area (HPLC) ([5]; Ethanol solution, 25° C.): 1633.32 mAu*s | Area (HPLC) ([5]; Ethanol solution, 50° C.): 1625.98 mAu*s | Area (HPLC) ([5]; Ethanol solution, 80° C.): 1625.83 mAu*s | Thermal stability in solution ([5]; THF, ethanol, acetone solutions, RT 24 h, 50° C. and 80° C. 1 h, HPLC purity): thermally stable in solution | Area (HPLC) ([5]; Tetrahydrofuran solution, 25° C.): 1697.99 mAu*s | Area (HPLC) ([5]; Tetrahydrofuran solution, 50° C.): 1713.96 mAu*s | Area (HPLC) ([5]; Tetrahydrofuran solution, 80° C.): 1701.15 mAu*s | Solubility pH 6 ([3]; 0.2M phosphate buffer (pH 6), 37° C., 4 hours, listed as Voruciclib Free base): 0.01 mg/mL | Solubility water ([3]; water, 37° C., 4 hours, listed as Voruciclib Free base): <10 µg/mL
Compound: CN1CC[C@@H](c2c(O)cc(O)c3c(=O)cc(-c4ccc(C(F)(F)F)cc4Cl)oc23)[C@@H]1CO [Voruciclib, (+)-trans-2-(2-chloro-4-trifluoromethylphenyl)-5,7-dihydroxy-8-(2-hydroxymethyl-1-methylpyrrolidin-3-yl)-chromen-4-one]

Reference: US12421216B2, “Voruciclib polymorphs and methods of making and using thereof” (MEI PHARMA, INC., priority 2019, dated 2025)
